Test results as given in patent US11938121B2, “Treatment of infections and biofilm formation using a cellulose synthase inhibitor” (Purdue Research Foundation, priority 2020, dated 2024).

Columns and labels:
[1] = test system: AtCESA6 carrying missense mutations in prc1-1; test: Root growth of transgenic plants expressing mutated AtCESA6 in prc1-1; format: in vivo, Arabidopsis thaliana; details: D562N, D564N, D785N, Q823E, R826A, W827A in prc1-1
Description: We then examined whether transgenic plants expressing AtCESA6 with predicted missense mutations at the catalytic site in prc1-1 background would have altered sensitivity to active ES20 analogs. […] However, the responses of two transgenic lines expressing AtCESA6 carrying missense mutations outside of the catalytic site (L365F and D395N) to nine active ES20 analogs were similar to those of wild-type plants (FIG. 2B).
To test the inhibitory effects of different chemicals on plant growth, wild-type Arabidopsis Col-0 plants were used. The seeds of plants used for growth assays or live cell imaging were sequentially sterilized with 50% bleach and 75% ethanol. […] To quantify the inhibitory effects of different ES20 active analogs on the root growth of Arabidopsis wildtype, EMS mutants, and transgenic plants expressing mutated AtCESA6 in prc1-1 background, sterilized Col-0, mutants, and transgenic plants seeds were sown on gridded Petri plates containing ½-strength MS medium supplemented with different concentrations of ES20 analogs. […] The plates were scanned using an Epson Perfection V550 scanner after 7 days of growth, and the root lengths of plants were quantified using ImageJ software. […] The Petri dishes were scanned, and hypocotyl length was measured using ImageJ. […]

[2] = test system: AtCESA6 (cesa6 alleles es20r1-es20r15); test: Root growth of EMS-induced cesa6 mutants es20r1-es20r15 on ES20 analogs; format: in vivo, Arabidopsis thaliana; details: compared with wild-type/control plants
Description: A subset of active ES20 analogs likely target the catalytic domain of AtCESA6. […] Since ES20 and the nine active ES20 analogs share highly similar structures, we reasoned whether these active analogs target AtCESA6 as well. We therefore examined the growth of es20r1-es20r15 plants in the presence of nine active ES20 analogs compared to wild-type plants.
To test the inhibitory effects of different chemicals on plant growth, wild-type Arabidopsis Col-0 plants were used. The seeds of plants used for growth assays or live cell imaging were sequentially sterilized with 50% bleach and 75% ethanol. […] To quantify the inhibitory effects of different ES20 active analogs on the root growth of Arabidopsis wildtype, EMS mutants, and transgenic plants expressing mutated AtCESA6 in prc1-1 background, sterilized Col-0, mutants, and transgenic plants seeds were sown on gridded Petri plates containing ½-strength MS medium supplemented with different concentrations of ES20 analogs. […] The plates were scanned using an Epson Perfection V550 scanner after 7 days of growth, and the root lengths of plants were quantified using ImageJ software. […] The Petri dishes were scanned, and hypocotyl length was measured using ImageJ. Transgenic plants expressing fluorescence-tagged PIN2, PIP2a, HDEL, VHA-a1, and GOT1p were as reported previously (Xu and Scheres, Plant Cell, 2005, 17, 525-536).

[3] = target: T1, GFP-CESA6c (central cytosolic domain of AtCESA6) (Arabidopsis thaliana, UniProt Q94JQ6); test: MST assay with GFP-CESA6c; format: binding
T1 construct: made in house; host or cells: E. coli

[4] = test system: Arabidopsis Col-0; test: Etiolated hypocotyl growth assay; format: in vivo, Arabidopsis thaliana; details: dark-grown Col-0, dosages examined
Experimental: To test the inhibitory effects of different chemicals on plant growth, wild-type Arabidopsis Col-0 plants were used. The seeds of plants used for growth assays or live cell imaging were sequentially sterilized with 50% bleach and 75% ethanol. After washing with sterilized water, the seeds were sown on ½-strength Murashige and Skoog (MS) medium supplemented with 3 mg/L of various chemicals. The plants were grown under continuous light of 130 μmol m^−2 s^−1 intensity illuminated by a Philips F25T8/TL841 25-watt bulb at 22° C. To quantify the inhibitory effects of different ES20 active analogs on the root growth of Arabidopsis wildtype, EMS mutants, and transgenic plants expressing mutated AtCESA6 in prc1-1 background, sterilized Col-0, mutants, and transgenic plants seeds were sown on gridded Petri plates containing ½-strength MS medium supplemented with different concentrations of ES20 analogs. The plates were placed in vertical orientation in the growth chamber for root measurement. The plates were scanned using an Epson Perfection V550 scanner after 7 days of growth, and the root lengths of plants were quantified using ImageJ software. […] The Petri dishes were scanned, and hypocotyl length was measured using ImageJ. Transgenic plants expressing fluorescence-tagged PIN2, PIP2a, HDEL, VHA-a1, and GOT1p were as reported previously (Xu and Scheres, Plant Cell, 2005, 17, 525-536).

[5] = test system: Arabidopsis Col-0; test: Arabidopsis Col-0 root growth and root swelling assay; format: in vivo, Arabidopsis thaliana; details: same dosage as ES20
Experimental: During the primary screening, we sowed Col-0 seeds on solid growth medium supplemented with 0.1% DMSO or 3 mg/L of different compounds with molar concentrations ranging from 5-10 μM. After 7 days of growth, we imaged the seedlings and evaluated the inhibitory effect of each chemical. Because disrupting cellulose biosynthesis by treating plants with a cellulose biosynthesis inhibitor or introducing mutations in the cellulose biosynthesis pathway often leads to root growth inhibition, root swelling, as well as ectopic lignin accumulation (Arioli et al., Science 1998, 279, 717-720; Huang et al., 2020), we first evaluated the ability of the compounds to inhibit root growth and cause root swelling. […] We grew wildtype seedlings on growth medium supplemented with DMSO (0.1%) or different concentrations of ES20 analogs for 7 days and quantified the crystalline cellulose content in root cell wall. […]
To test the inhibitory effects of different chemicals on plant growth, wild-type Arabidopsis Col-0 plants were used. […] To quantify the inhibitory effects of different ES20 active analogs on the root growth of Arabidopsis wildtype, EMS mutants, and transgenic plants expressing mutated AtCESA6 in prc1-1 background, sterilized Col-0, mutants, and transgenic plants seeds were sown on gridded Petri plates containing ½-strength MS medium supplemented with different concentrations of ES20 analogs. […]

T1 sequence (Q94JQ6 322-868): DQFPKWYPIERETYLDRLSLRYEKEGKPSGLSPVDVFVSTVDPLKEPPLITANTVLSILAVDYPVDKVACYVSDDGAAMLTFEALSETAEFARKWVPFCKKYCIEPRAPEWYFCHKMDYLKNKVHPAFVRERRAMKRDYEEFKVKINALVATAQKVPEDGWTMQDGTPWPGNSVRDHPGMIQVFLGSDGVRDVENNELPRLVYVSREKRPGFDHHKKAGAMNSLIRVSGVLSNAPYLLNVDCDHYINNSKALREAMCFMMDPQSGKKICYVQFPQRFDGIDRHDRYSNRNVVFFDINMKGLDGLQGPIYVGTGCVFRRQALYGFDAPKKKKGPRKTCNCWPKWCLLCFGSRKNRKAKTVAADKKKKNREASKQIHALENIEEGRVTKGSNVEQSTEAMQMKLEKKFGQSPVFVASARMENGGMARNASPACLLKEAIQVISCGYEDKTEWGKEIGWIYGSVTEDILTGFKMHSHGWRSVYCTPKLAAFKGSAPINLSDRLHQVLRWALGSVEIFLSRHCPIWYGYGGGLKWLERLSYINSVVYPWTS

Cc1ccccc1C(=O)NNC(=S)NC(=O)c1ccccc1 [ES20-1]
sensitivity of transgenic lines with AtCESA6 catalytic site mutations [1]: Reduced sensitivity
sensitivity of es20r1-es20r15 mutants in growth [2]: All 15 mutants, which show reduced sensitivity to ES20, also showed reduced sensitivity
interaction with CESA6c ([3]; 100 nM GFP-CESA6c): interacted
relative binding affinity to CESA6c ([3]; MST): may have a higher binding affinity to CESA6c than ES20
hypocotyl growth inhibition compared with ES20 [4]: inhibited hypocotyl growth more strongly than ES20
root growth inhibition compared with ES20 [5]: more strongly inhibited root growth than ES20
